Eight molecules from PubChem BioAssay AID449759 (The Scripps Research Institute Molecular Screening Center, 2010) can be followed below.

Activity calls are given as the source filed them. The rule behind the calls is not given here.

This experiment has as its system NIH 3T3 cells, IRF-1 mRNA qPCR, IFNg-stimulated. The experiment can be described thus: enhancement of STAT1 target gene IRF-1 transcripts – SYBR qPCR, NIH 3T3 cells, powder samples, counter-screen for STAT1 activator project, late-stage follow-up (AID 449759). To be noted: at 10 µM; active compounds read high.
For the molecule `CCN(CC)c1ccc2cc(C(=O)Nc3ccccn3)c(=O)oc2c1`, the fold change was 0.85 (inactive).

For the molecule `CCOC(=O)/C(C#N)=C/c1cc(C)n(-c2ccccc2)c1C`, the fold change is 0.7 (inactive).

Turning to `Cc1ccc(C(=O)Nc2nc3ccccc3s2)s1`, the fold change is 0.93 (inactive).

In the case of `N#C/C(=C\c1ccc(N2CCOCC2)o1)c1nc2ccccc2[nH]1`, the fold change is 0.5 (inactive).

Turning to `COc1ccc(-c2cc(C)nc3c(-c4ccccc4)cnn23)cc1`, the fold change was 0.81 (inactive).

On to `COc1ccc(-c2csc(N3C(=O)CNC3=S)n2)cc1`, for which the fold change is 0.34 (inactive).

Turning to `COc1ccc2[nH]c3c(c2c1)CCn1c-3nc2ccccc2c1=O`, the fold change is 0.89 (inactive).

For the molecule `O=C(/C=C/Nc1ccccc1F)c1ccc(Br)cc1`, the fold change was 0.77 (inactive).
